The supplement of paper PMC10307832

Experiments:
Assay in all cases: relative viability (nuclei count vs DMSO), 5 days (fraction); higher = more cells survive
[1] = compound: CCC1=CN=CN=C1N2CCN(CC2)CC3=NC4=C(N3)C=C(C=C4)C(F)(F)F + Cc1nc(NC(=O)N2CCC[C@H]2C(N)=O)sc1-c1ccnc(C(C)(C)C(F)(F)F)c1 [Alpelisib] (partner 2 µM)
Summary of the method: (§1)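 After 5 days of treatment, lung cancer cells in 1536-well plates were fixed and stained in a single step (final 0.05% Triton X-100, 1% formaldehyde, 1 ug/ml Hoechst) and their nuclei counted on 4× images. Treatment had been applied by pin tool the day after seeding as one drug alone or as a fixed anchor-drug dose with five library-drug doses (not always all listed) in √10 steps. Relative viability is the nuclei count of treated wells divided by that of vehicle wells, and values are medians of duplicate plates.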

[2] = compound: CCn1c(-c2nonc2N)nc2cnc(Oc3cccc(NC(=O)c4ccc(OCCN5CCOCC5)cc4)c3)cc21 + Cc1nc(NC(=O)N2CCC[C@H]2C(N)=O)sc1-c1ccnc(C(C)(C)C(F)(F)F)c1 [Alpelisib] (partner 2 µM)
Summary of the method: as §1

[3] = compound: CCn1c(-c2nonc2N)nc2cnc(Oc3cccc(NC(=O)c4ccc(OCCN5CCOCC5)cc4)c3)cc21 + C[C@@H](Oc1cc(-c2cnn(C3CCNCC3)c2)cnc1N)c1c(Cl)ccc(F)c1Cl [Crizotinib] (partner 1 µM)
Summary of the method: as §1

Mirin + Alpelisib = compound: N=C1NC(=O)/C(=C/c2ccc(O)cc2)S1 [Mirin] + Cc1nc(NC(=O)N2CCC[C@H]2C(N)=O)sc1-c1ccnc(C(C)(C)C(F)(F)F)c1 [Alpelisib] (partner 2 µM)
Summary of the method: as §1

Cell Line	relative viability ([1]; first compound 0.04 µM)	relative viability ([1]; first compound 0.1265 µM)	relative viability ([1]; first compound 0.4 µM)	relative viability ([1]; first compound 1.265 µM)	relative viability ([1]; first compound 4 µM)	relative viability ([2]; first compound 0.04 µM)	relative viability ([2]; first compound 0.1265 µM)	relative viability ([2]; first compound 0.4 µM)	relative viability ([2]; first compound 1.265 µM)	relative viability ([2]; first compound 4 µM)	relative viability ([3]; first compound 0.04 µM)	relative viability ([3]; first compound 0.1265 µM)	relative viability ([3]; first compound 0.4 µM)	relative viability ([3]; first compound 1.265 µM)	relative viability ([3]; first compound 4 µM)	relative viability (Mirin + Alpelisib; first compound 0.25 µM)	relative viability (Mirin + Alpelisib; first compound 0.7906 µM)	relative viability (Mirin + Alpelisib; first compound 2.5 µM)	relative viability (Mirin + Alpelisib; first compound 7.906 µM)	relative viability (Mirin + Alpelisib; first compound 25 µM)
NCI-H358	0.892	0.836	0.833	0.853	0.747	1.01	1.04	0.792	0.65	0.42	0.561	0.661	0.522	0.467	0.281	0.822	0.876	0.943	0.723	0.461
NCI-H441	0.662	0.629	0.762	0.753	0.612	0.688	0.834	0.68	0.599	0.44	1.02	0.659	0.606	0.479	0.431	0.537	1.11	0.631	0.536	0.507
NCI-H460	0.445	0.559	0.385	0.398	0.583	0.72	0.452	0.444	0.205	0.15	0.962	0.697	0.597	0.276	0.0863	0.511	0.424	0.559	0.515	0.236
NCI-H520	1.08	0.883	0.838	0.765	1.01	1.18	0.982	0.897	0.788	0.522	0.957	0.784	0.751	0.565	0.371	1.01	0.834	0.883	0.665	0.522
NCI-H596	0.573	0.431	0.443	0.459	0.508	0.482	0.51	0.612	0.49	0.55	0.857	0.934	0.932	0.959	1.03	0.438	0.45	0.481	0.513	0.361
NCI-H647	1.16	1.05		1.02	1.05	1.04	0.746	0.795	0.657	0.577	1.28	0.865	0.813	0.511	0.389	1.24	1.36	1.15	1.22	0.657
NCI-H650	1.02	1.1	0.968	0.997	0.965	1.31	0.893	0.745	0.434	0.492	0.838	0.758	0.432	0.388	0.339	1.04		1.09		1.1
NCI-H661	0.561	0.512	0.506		0.57	0.823	0.724	0.435	0.287	0.451	0.993	1.05	1.13	0.694	0.86	0.657	0.554	0.612	0.323	0.602
NCI-H727	0.684	0.483	0.463		0.544	0.745	0.833	0.751	0.84	0.713	1.16	1.04	1.14	0.835	0.823	0.699	0.7	0.692	0.761	0.54
NCI-H838	1.1	0.963	0.971	0.994	0.986	0.654	0.467	0.484	0.406	0.332	0.725	0.427	0.466	0.272	0.228	0.966	1	0.961	1.03	0.965
NCI-H1299	1.09	1.07	1.04	1.03	1.04	0.991	0.891	0.836	0.912	0.861	0.961	0.878	0.768	0.71	0.473	1.01	1.16	1.06	0.622	1.21
NCI-H1355	0.815	0.74	0.807	0.732	0.797	0.863	0.951	0.818	0.814	0.863	1.16	1.11	1.18	1.01	1.01	0.858	0.864	0.754	0.915	0.727
NCI-H1437	1	0.93	0.831	0.795	0.855	1.06	0.888	0.833	0.809	0.753	0.788	0.949	0.749	0.703	0.666	0.979	0.884	0.832	0.705	0.474
NCI-H1563	0.887	0.92	1	0.986	0.954	0.96	0.878	0.825	0.766	0.712	0.768	0.863	0.816	0.789	0.668	0.918	0.958	0.92	0.937	0.833
NCI-H1651	1.01	0.961	0.876	0.818	0.907	1.09	1.06	0.883	0.964	0.653	0.871	0.98	0.822	0.667	0.907	1.03	1.05	1.03	0.916	0.785
NCI-H1666	0.877	0.913	0.903	0.851	0.95	1.45	1.21	1.06	0.606	0.513	1.21	1.2	1.23	0.726	0.372	0.869	1.01	0.884	0.826	0.528
NCI-H1703	0.462	0.401	0.358	0.25	0.535	0.385	0.428	0.254	0.209	0.164	0.641	0.799	0.484	0.426	0.205	0.363	0.259	0.314		0.213

Cell Line	relative viability ([1]; first compound 0.04 µM)	relative viability ([1]; first compound 0.1265 µM)	relative viability ([1]; first compound 0.4 µM)	relative viability ([1]; first compound 1.265 µM)	relative viability ([1]; first compound 4 µM)	relative viability ([2]; first compound 0.04 µM)	relative viability ([2]; first compound 0.1265 µM)	relative viability ([2]; first compound 0.4 µM)	relative viability ([2]; first compound 1.265 µM)	relative viability ([2]; first compound 4 µM)	relative viability ([3]; first compound 0.04 µM)	relative viability ([3]; first compound 0.1265 µM)	relative viability ([3]; first compound 0.4 µM)	relative viability ([3]; first compound 1.265 µM)	relative viability ([3]; first compound 4 µM)	relative viability (Mirin + Alpelisib; first compound 0.25 µM)	relative viability (Mirin + Alpelisib; first compound 0.7906 µM)	relative viability (Mirin + Alpelisib; first compound 2.5 µM)	relative viability (Mirin + Alpelisib; first compound 7.906 µM)	relative viability (Mirin + Alpelisib; first compound 25 µM)
NCI-H1734	0.686	0.754	0.795		0.676	0.802	0.708	0.513	0.571	0.402	0.671	0.669	0.581	0.464	0.285	0.67	0.651	0.684	0.656	0.584
NCI-H1755	0.881	0.913	0.923	0.862	0.895	0.975	1.01	0.923	0.872	0.882	0.911	0.94	0.845	0.795	0.776	0.926	0.947	0.976	0.947	0.876
NCI-H1792	0.696	0.685	0.641	0.503	0.65	0.84	0.773		0.551	0.629	1.08	0.99		0.592	0.841	0.743	0.691	0.81	0.613	0.641
NCI-H1915	1.1	1.03	1.06	0.957	1.03	1.03	1.09	1.03	1.08	1.04	1.09	0.899	0.868	0.93	0.86	1.04		1.09	0.948	1.08
NCI-H1944	0.993	0.827	0.778		0.802	0.934	0.809		0.781	0.789	1.15	1.11		1.07	1.12	0.834		0.813	0.718	0.52
NCI-H1975	0.641	0.633	0.605	0.61	0.527	0.548	0.439	0.401	0.221	0.202	0.933	0.788	0.864	0.279	0.218	0.626	0.631	0.618	0.714	0.572
NCI-H1993	0.593	0.623	0.743	0.77	0.727	0.758	0.77		0.719	0.668	0.991	0.864		0.75	0.742	0.663	0.779	0.681	0.65	0.674
NCI-H2009	1.24	1.12	1.12	1.19	1.14	1.01	0.987	0.857	0.745	0.5	0.987	0.847	0.754	0.41	0.258	1.1	1.27	1.19	1.12	1.13
NCI-H2023	0.593	0.576	0.616	0.602	0.571	0.715	0.666	0.66	0.549	0.425	0.737	0.736	0.593	0.25	0.194	0.588	0.594	0.616	0.616	0.555
NCI-H2085	1.05	0.915	0.991	0.879	0.832	1.15	0.959	0.86	0.869	0.845	0.988	0.797	0.661	0.741	0.72	0.908	1.07	0.97	0.843	0.674
NCI-H2087	1.01	0.881	1.05	0.805	0.809		0.767	0.886	0.838	0.524		0.591	0.678	0.522	0.336	1.07	1.06	1.13	1.24	1.08
NCI-H2126	0.74	0.756	0.722	0.639	0.745	0.804	0.703	0.728	0.822	0.789	1.05	1.05	1.04	1.07	1.02	0.758	0.724	0.784	0.679	0.688
NCI-H2170	0.841	0.753	0.762	0.713	0.685	0.748	0.747	0.912	0.719	0.817	1.03	1.21	1.15	1.17	1.26	0.792	0.83	0.909	0.714	0.699
NCI-H2228	0.726	0.931	0.805	0.651	0.675	1.14	0.998	0.776	0.732	0.644	0.468	0.385	0.49	0.432	0.471	0.711	0.906	0.681	1.05	0.636
NCI-H2347	1.07	1.07	0.948	0.769	0.938	1.12	1.06	0.906	0.511	0.588	0.602	0.69	0.589	0.484	0.39	1.02	1.12	1.05	1.08	1.16
NCI-H2405	0.858	0.768	0.651		0.941	0.893	0.425	0.368	0.326	0.274	0.964	0.782	0.655	0.257	0.285	0.762	0.774	0.781	0.727	0.622
